# Data taken from patent US10335449B2, “Rho associated kinase (ROCK) inhibitors and their use in treating disease” (UNIVERSITY OF HOUSTON SYSTEM, priority 2014, dated 2019).
# “And” between values parts separate entries of the source, which are not always exact repeats. Equal entries are not always repeated. “Also recorded” adds a separate entry of the source. No end group written: not given here.
# Tests used:
# citron kinase = citron kinase (Homo sapiens, UniProt O14578); details: cited from earlier work
# protein kinase A = details: cited from earlier work
# [1] = target: T1, ROCK1 catalytic domain (MBP-ROCK1) (Homo sapiens, UniProt Q13464); test: ROCK1 autophosphorylation inhibition by phage-displayed peptides; assay type: biochemical; details: for ROCK autophosphorylation inhibition: high ATP levels (1 mM)
# T1 construct: made in house
# Procedure: The maltose binding protein fusion protein linked to the ROCK1 kinase domain (MBP-ROCK1) was incubated with a Ph.D-12 phage display library of 12 amino acids in length (New England Biolabs, Inc).
# The ROCK1 catalytic domain (MBP-ROCK1) was linked to a maltose binding protein fusion protein and was incubated with a Ph.D-12 phage display library of 12 amino acids in length (New England Biolabs, Inc.).
# cellular cytoskeleton = test: Cellular cytoskeleton disruption in cell culture; assay type: cell-based; details: added to cell culture medium
# Excerpt: Peptides25 was synthesized and one of which contained a fusion of the N′ end terminal TAT sequence (TATpeptide25), which allows peptides and proteins easy entry into cells.
# Peptides25 was synthesized and an additional synthesis which contained a fusion of the N′ end terminal TAT sequence (TATpeptide25), which allows peptides and proteins easy entry into cells. […] The TAT polypeptide sequence alone was ineffective. At the cellular level, the cell cytoskeleton changed after TATpeptide25 was introduced into cell culture medium as expected, since ROCK is a mediator for cell morphology and cell migration.
# [2] = test system: cell movement into the wound (ROCK1); test: Wound healing scratch test; assay type: cell-based; details: for percent of healing (mean): standard scratch test, at least N=5 trials, control mean 17.4
# Procedure: Peptide25 change in perimeter (mean: 15%; p-value: 0.03) was evaluated for 4 separate experiments with each having 3 trials for a total of 12 measurements. These experiments included two controls, one with no treatment the other with only the TAT peptide.
# Peptide fragments were chosen based on the information from analysis of critical residues and the candidate sequences Pep25-A AAYSPST (Pep25-A; SEQ ID NO: 62) and ERTYSPS (Pep25-P2; SEQ ID NO: 69) were evaluated again using a wound healing scratch test.
# ROCK1 = ROCK1 (Homo sapiens, UniProt Q13464); test: Luciferase assay of peptide25 fragments and alanine substitutions; assay type: biochemical
# Procedure: (Right panel) Likewise the alanine substitution at positions Y4, S5, P6, and S7 all reduced the effectiveness of peptide25.
# The peptide25 was divided into fragments; ERTYS (F1; SEQ ID NO: 3), YSPST (F2; SEQ ID NO: 4), and STAVRS (F3; SEQ ID NO: 2). […] Additionally, an alanine substitution was performed at each position to look for amino acids that putatively might be important to binding and when replaced reduced the response.
# ROCK = ROCK and S6 substrate reaction followed by mass spectrum; assay type: biochemical
# Procedure: FIG. 10—(Left panel) Mass spectrum, two peaks labeled as S6 and pS6 were non-phosphorylated and phosphorylated S6 from ROCK reaction mixture. Following the decreasing concentration of Pep25-P2, the phosphorylated peak pS6 was increasing. (Right panel) S6 conversion ratios were calculated by phosphorylated peak area divided by the sum of phosphorylated and non-phosphorylated peaks' areas.
# To determine its inhibition at substrate conversion, different concentrations of Pep25-P2 was added to a ROCK and S6 (substrate) reaction mixture. In MS data, peaks representing phosphorylated and non-phosphorylated S6 substrates were then identified (FIG. 10).
# [3] = test system: aortic rings contracted with U46619; test: Aortic ring contractility assay (ring bath, U46619); parameters: species or system mice
# Procedure: Channel evaluation of concentrations 150, 200, 300, 100, 250, and 50 μM. Channel 7 (last graph) is the control.
# Aortas were collected from adult mice, removed the surrounding fat tissues and installed the freshly cut rings in 2 mm sections on the isometric transducer apparatus. After adjusting the rings tension through series of contraction and relaxation, the rings were constricted 3 times with the 40 mM KCl to achieve consistent contraction. In order to find the effective contraction inducing dose of U46619, following the relaxation of the rings after the KCl contraction, the rings were subjected to contraction by adding different doses of U46619, a vasoconstrictor. 1-3 nM U46619 was chosen do the further experiments. […] Second dose of U46619 was applied to contract the ring. The affection was measured by the difference of the highest response of U46619 with and without Pep25-P2. […] One ring had 26% decreasing, the other had 40% decreasing.
# ROCK2 = ROCK2 (Homo sapiens, UniProt O75116); test: Surface Plasmon Resonance binding (BiaCore); details: SPR, data not shown
# Excerpt: FIG. 6—Determination of binding affinity of TATpeptide25. Proteins MBP, ROCK2, ROCK1-553. ROCK1-415 Were immobilized on CM-5 chip and peptide binding affinity was monitored by BiaCore system. Peptide TAT was used as control to monitored non-specific binding.
# Surface Plasmon Resonance (SPR) was used to measure peptide25 binding efficiency with ROCK.
# Sequence of ROCK1 (Q13464 whole entry, species assumed, the tested form may be a part): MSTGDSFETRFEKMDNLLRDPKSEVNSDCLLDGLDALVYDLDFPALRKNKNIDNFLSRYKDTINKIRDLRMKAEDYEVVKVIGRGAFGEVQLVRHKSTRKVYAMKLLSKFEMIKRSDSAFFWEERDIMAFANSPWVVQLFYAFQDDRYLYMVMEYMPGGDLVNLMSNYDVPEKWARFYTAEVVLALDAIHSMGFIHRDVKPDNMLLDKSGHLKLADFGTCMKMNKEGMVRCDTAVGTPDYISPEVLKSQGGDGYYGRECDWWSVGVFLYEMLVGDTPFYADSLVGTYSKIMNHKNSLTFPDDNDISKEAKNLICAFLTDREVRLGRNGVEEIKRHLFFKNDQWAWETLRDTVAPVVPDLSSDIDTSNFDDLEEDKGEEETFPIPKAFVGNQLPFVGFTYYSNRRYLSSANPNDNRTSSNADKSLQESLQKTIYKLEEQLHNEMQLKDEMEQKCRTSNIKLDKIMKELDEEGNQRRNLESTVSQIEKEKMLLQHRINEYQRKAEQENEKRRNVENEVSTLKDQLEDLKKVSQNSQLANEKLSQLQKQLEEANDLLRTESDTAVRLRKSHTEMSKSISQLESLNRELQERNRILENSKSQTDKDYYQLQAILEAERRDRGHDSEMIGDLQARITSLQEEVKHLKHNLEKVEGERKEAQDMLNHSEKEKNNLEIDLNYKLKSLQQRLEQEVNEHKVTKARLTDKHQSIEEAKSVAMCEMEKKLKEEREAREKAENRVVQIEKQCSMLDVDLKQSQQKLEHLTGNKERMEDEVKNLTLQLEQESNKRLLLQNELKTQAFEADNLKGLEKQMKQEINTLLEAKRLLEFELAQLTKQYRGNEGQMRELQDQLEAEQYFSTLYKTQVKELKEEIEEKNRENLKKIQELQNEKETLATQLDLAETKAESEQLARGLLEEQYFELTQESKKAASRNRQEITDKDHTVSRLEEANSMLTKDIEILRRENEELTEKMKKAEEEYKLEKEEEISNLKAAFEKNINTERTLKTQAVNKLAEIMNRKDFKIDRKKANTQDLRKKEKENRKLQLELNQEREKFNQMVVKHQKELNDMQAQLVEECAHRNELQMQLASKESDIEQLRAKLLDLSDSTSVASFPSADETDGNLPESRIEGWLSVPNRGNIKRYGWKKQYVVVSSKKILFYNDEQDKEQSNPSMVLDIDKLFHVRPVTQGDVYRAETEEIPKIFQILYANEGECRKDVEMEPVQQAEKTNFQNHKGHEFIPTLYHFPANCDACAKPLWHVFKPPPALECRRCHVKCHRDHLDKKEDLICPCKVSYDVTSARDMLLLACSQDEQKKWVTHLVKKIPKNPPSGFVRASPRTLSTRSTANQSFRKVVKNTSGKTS
# T1 sequence (Q13464 76-338 limits assumed, species assumed): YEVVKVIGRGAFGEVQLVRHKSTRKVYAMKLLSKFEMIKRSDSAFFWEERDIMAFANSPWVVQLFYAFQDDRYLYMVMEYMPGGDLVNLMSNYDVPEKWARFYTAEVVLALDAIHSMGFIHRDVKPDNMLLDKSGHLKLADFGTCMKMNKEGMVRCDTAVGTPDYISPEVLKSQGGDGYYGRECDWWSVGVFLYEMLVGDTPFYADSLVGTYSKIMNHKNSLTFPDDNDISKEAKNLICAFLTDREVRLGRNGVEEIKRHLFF
# Sequence of ROCK (Q13464 6-415 limits assumed): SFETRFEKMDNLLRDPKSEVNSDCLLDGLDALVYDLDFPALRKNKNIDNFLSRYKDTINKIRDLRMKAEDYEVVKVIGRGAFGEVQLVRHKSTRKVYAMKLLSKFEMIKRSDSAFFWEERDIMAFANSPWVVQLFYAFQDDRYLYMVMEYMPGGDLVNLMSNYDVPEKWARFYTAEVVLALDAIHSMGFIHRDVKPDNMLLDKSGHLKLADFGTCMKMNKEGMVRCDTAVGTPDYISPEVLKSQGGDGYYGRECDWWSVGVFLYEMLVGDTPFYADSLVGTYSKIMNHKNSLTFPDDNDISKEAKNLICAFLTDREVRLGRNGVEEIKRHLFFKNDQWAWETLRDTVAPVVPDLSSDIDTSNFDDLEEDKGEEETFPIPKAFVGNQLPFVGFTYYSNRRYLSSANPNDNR
# Sequence of citron kinase (O14578 whole entry): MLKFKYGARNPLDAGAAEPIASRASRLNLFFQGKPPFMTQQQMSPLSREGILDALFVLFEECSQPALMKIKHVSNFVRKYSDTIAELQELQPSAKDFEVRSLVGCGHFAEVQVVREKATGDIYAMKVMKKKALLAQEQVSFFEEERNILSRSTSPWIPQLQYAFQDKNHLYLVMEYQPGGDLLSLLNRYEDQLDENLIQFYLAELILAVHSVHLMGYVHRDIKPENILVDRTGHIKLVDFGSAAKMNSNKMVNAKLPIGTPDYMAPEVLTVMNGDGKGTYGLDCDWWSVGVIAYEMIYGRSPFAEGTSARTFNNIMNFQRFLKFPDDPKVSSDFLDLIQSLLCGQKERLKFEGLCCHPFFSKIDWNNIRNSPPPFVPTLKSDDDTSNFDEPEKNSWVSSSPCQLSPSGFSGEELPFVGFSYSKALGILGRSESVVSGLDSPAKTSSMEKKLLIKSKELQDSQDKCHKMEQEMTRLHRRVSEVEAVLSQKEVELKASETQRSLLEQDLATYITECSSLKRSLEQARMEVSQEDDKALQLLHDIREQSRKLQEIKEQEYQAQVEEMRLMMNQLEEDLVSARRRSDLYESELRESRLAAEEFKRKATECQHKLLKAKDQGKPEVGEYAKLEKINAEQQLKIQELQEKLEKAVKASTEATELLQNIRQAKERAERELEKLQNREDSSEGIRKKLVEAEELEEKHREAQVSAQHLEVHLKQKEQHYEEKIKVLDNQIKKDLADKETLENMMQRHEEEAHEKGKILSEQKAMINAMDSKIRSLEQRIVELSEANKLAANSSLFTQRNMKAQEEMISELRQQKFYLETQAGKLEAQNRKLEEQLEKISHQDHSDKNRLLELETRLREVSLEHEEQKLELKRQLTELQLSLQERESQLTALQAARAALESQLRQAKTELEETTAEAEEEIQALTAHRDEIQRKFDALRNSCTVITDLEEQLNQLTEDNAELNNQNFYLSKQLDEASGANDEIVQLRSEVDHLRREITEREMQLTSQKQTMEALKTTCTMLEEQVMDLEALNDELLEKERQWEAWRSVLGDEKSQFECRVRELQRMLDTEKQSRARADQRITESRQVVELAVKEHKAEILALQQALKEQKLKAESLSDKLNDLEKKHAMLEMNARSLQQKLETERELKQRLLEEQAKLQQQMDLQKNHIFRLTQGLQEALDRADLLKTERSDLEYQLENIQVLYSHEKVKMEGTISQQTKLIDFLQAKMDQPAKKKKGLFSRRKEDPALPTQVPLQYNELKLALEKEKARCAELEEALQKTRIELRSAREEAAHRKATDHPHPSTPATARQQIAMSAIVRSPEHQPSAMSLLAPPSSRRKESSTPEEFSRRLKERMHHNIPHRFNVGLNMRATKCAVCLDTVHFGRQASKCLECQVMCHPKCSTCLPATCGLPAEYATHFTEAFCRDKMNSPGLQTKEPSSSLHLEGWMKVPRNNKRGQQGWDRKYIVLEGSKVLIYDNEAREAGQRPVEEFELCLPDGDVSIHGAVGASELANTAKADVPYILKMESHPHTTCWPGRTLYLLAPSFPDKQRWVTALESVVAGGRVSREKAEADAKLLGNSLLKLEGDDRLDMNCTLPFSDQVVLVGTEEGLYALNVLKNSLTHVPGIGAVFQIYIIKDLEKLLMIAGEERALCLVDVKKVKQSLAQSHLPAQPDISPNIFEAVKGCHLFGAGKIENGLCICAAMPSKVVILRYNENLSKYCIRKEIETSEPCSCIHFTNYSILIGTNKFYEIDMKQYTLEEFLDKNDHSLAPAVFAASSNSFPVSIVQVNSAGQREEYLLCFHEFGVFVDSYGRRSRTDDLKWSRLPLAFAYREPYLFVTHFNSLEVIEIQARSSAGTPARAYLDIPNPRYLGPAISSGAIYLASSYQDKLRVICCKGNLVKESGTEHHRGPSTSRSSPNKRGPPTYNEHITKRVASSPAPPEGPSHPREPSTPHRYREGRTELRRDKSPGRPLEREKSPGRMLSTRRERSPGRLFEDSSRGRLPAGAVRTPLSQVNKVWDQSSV
molecule,measurement,setting,value
O=S(=O)(c1cccc2cnccc12)N1CCCNCC1 [Fusadil],inhibition of citron kinase,citron kinase,also inhibit
same,inhibition of protein kinase A,protein kinase A,also inhibit
C[C@@H](N)[C@H]1CC[C@H](C(=O)Nc2ccncc2)CC1 [Y27632],ROCK autophosphorylation inhibition,[1],blocked Y27632 inhibitory activity
same,inhibition of citron kinase,citron kinase,also inhibit
same,inhibition of protein kinase A,protein kinase A,also inhibit
same,effect on cellular cytoskeleton,cellular cytoskeleton,melted cytoskeleton
AAYSPST [Pep25-A],percent of healing (mean),[2],15.1%
ERTYS [F1],inhibitory activity measured by luciferase assay,ROCK1,retained its activity
ERTYSPS [Pep25-P2],effect on cellular cytoskeleton,cellular cytoskeleton,disrupted actin exoskeleton formation
same,phosphorylation of substrate S6 by ROCK (conversion ratio),ROCK; different concentrations of peptide in ROCK and S6 reaction mixture,repressed the phosphorylation of substrate S6 by ROCK
same,phosphorylation of the peptide by ROCK,ROCK; mass spectrum,couldn't be phosphorylated by ROCK
same,wound healing / ROCK1 inhibition in scratch test,[2],inhibited ROCK1 more effectively; also recorded: inhibited wound healing
same,effective dose from dose curve,[2]; scratch test dose response,40 µM
same,percent of healing (mean),[2],13.1%
same,suppression of U46619 contractility,"[3]; 50-300 μM, preincubation 20 min",showed suppression of contractility of U46619; also recorded: dose dependant response
same,decrease of highest U46619 contraction response,"[3]; 200 and 300 μM preincubated 10 min, one ring each, 1-3 nM U46619",26% and 40%
ERTYSPSTAVRS [peptide25],ROCK autophosphorylation inhibition,[1],blocked ROCK autophosphorylation
same,ROCK1 activity,[1]; in the presence of mM ATP,blocked ROCK1 activity
same,autophosphorylated inhibition,[1]; phage display candidates,exhibited autophosphorylated inhibition
same,binding with ROCK1 as compared to ROCK2,ROCK2,demonstrated some difference
same,change in perimeter at the intersection of the scratch (mean),"[2]; 4 separate experiments, 3 trials each, 12 measurements, p-value 0.03",15%
STAVRS [F3],inhibitory activity measured by luciferase assay,ROCK1,lost effectively; also recorded: did not confer an inhibitory response
"TATpeptide25: peptide25 with a fusion of the N′ end terminal TAT sequence (ERTYSPSTAVRS; also: N-terminal TAT sequence fusion, not in given chain)",effect on cellular cytoskeleton,cellular cytoskeleton,disassociated or “melted” cellular cytoskeleton
same,effect on cellular cytoskeleton,cellular cytoskeleton; listed as TAT-end-labeled peptide25,melted cytoskeleton
YSPST [F2],inhibitory activity measured by luciferase assay,ROCK1,retained its activity
